Laboratory results from patent US20080311613A1, “ARTIFICIAL SKIN SURFACE FILM LIQUIDS” (The Government of the U.S.A. as represented by the …, priority 2007, published 2008).
Values after ≈ are worked out from the molar mass of the structure shown. Where two headings read alike, the source gives them in different places.

Key:
[1] = Dissolution of vitamin constituents during preparation of artificial sweat; settings: for dissolution on addition to the artificial sweat solution: before pH adjustment (pH 3.8 as prepared), 36° C.
Method: (§1) This large initial volume was useful in promoting dissolution of the constituents of the artificial sweat. […] Next, the desired masses of electrolytes and other ionic constituents (see Table 2) were added to the flask. Upon addition of the electrolytes and ionic constituents, the concentrations of chloride, calcium, and iron were measured to assess whether they matched predictions from weighing: 1.67×10^−2 M chloride, 6.93×10^−3 M calcium, and 0.54 ppm iron. Next, organic acids and carbohydrates were added to the solution (see Table 2) and the stability of chloride, calcium, and iron concentrations verified. Amino acids were added (see Table 2) then calcium and iron concentrations verified; chloride ion concentration was measured to determine if it matched the predicted value (1.7×10^−2 M) from weighing electrolytes, ionic constituents, and hydrogen chloride salts of some amino acids. Nitrogenous substances were added (see Table 2) and chloride, calcium, and iron concentrations re-verified.
(§2) Vitamin constituents were added to the solution last (see Table 2).
(§3) The pH of the artificial sweat solution was raised from 3.8 (as prepared) to a final pH of 5.3 by adding 5 M sodium hydroxide dropwise while monitoring using a calibrated pH electrode (InLab 413, Mettler-Toledo, Schwerzenbach, Switzerland) connected to a multi-meter (Seven Multi, Mettler-Toledo). […] The final volume of the solution was then brought up to 1.0 L using 18 megohm-cm distilled and deionized water and the final pH verified. To minimize opportunity for microbial growth, the final sweat solution was filtered through a 0.2 μm pore size filter (Cat. No. SCGVU11RE, Millipore Corp., Billerica, Mass.).

[2] = water, cited from earlier work
[3] = physchem; settings: artificial sweat, 36 °C
Method: as §1, §2, §3

[4] = Long-term stability of artificial sebum by thin-layer chromatography; assay type: physicochemical; settings: dry at 32° C., absence of vitamin E
Method: Lipids and formulation of synthetic sebum. Cholesteryl oleate, oleoyl oleate, palmityl palmitate, cholesterol and vitamin E ((±)-α-tocopherol) were purchased from Sigma-Aldrich (St. Louis, Mo.). Squalene and stearic acid were from Acros Organics (Geel, Belgium). Triolein and tristearin were purchased from MP Biochemicals (Solon, Ohio), and oleic acid was from Fisher Scientific (Fairlawn, N.J.). […] All nine lipids were dissolved in a 2:1 co-solvent mixture of chloroform and methanol and divided into two portions, one of which received vitamin E at 0.1% by weight to mimic human sebum content. After combining and mixing, portions of lipid solution were transferred to 16×125 mm glass tubes equipped with Teflon-lined screw caps. One set of tubes with lipid solution was maintained at 4° C. to characterize storage using refrigeration. […]
Thin-layer chromatography. All samples were analyzed using thin layer chromatography. Glass plates (20×20 cm) coated with 0.25-mm-thick silica gel G (Adsorbosil-plus-1; Alltech Associates; Deerfield Ill.) were washed with chloroform:methanol, 2:1, activated in a 110° C. oven, and the adsorbent was scored into 6-mm-wide lanes. […] After two hrs, charring was complete, and the chromatograms were quantitated by photodensitometry. […]

O=C(O)c1cccnc1 [nicotinic acids, Nicotinic Acid (C6H5NO2)]
dissolution on addition to the artificial sweat solution [1]: did not dissolve completely

CC(C)(CO)[C@@H](O)C(=O)NCCC(=O)O [pantothenic, D-Pantothenic Acid (C9H17NO5)]
dissolution on addition to the artificial sweat solution [1]: did not dissolve completely

Cc1cc2nc3c(=O)[nH]c(=O)nc-3n(C[C@H](O)[C@H](O)[C@H](O)COP(=O)(O)O)c2cc1C [riboflavin 5′-(dihydrogen phosphate), reference compound]
solubility ([2]; pH=5.6): 68 mg/mL

Cc1cc2nc3c(=O)[nH]c(=O)nc-3n(C[C@H](O)[C@H](O)[C@H](O)CO)c2cc1C [riboflavin, Riboflavin (C17H20N4O6)]
concentration in artificial sweat relative to that predicted by solubility in water ([1]; artificial sweat vs water): two orders of magnitude greater
solubility [3]: ≥ 2000 µM
solubility [2]: 0.3 mg/mL (≈ 797 µM)

CC(C)=CCC/C(C)=C/CC/C(C)=C/CC/C=C(\C)CC/C=C(\C)CCC=C(C)C [squalene]
day by which completely oxidized [4]: ≤ 21 days
